Source: ChEMBL document CHEMBL1156473, “Crystal structure of human estrogen-related receptor alpha in complex with a synthetic inverse agonist reveals its novel molecular mechanism” (J Biol Chem, 2007)

Assays:
[1] = Binding affinity to ERRalpha C325S mutant ligand binding domain expressed in sf9 cells by isothermal titration calorimetry
[2] = target: T1, Steroid hormone receptor ERR1 (Homo sapiens, UniProt P11474); test: Binding affinity to ERRalpha ligand binding domain by FRET assay
T1 sequence (P11474 whole entry): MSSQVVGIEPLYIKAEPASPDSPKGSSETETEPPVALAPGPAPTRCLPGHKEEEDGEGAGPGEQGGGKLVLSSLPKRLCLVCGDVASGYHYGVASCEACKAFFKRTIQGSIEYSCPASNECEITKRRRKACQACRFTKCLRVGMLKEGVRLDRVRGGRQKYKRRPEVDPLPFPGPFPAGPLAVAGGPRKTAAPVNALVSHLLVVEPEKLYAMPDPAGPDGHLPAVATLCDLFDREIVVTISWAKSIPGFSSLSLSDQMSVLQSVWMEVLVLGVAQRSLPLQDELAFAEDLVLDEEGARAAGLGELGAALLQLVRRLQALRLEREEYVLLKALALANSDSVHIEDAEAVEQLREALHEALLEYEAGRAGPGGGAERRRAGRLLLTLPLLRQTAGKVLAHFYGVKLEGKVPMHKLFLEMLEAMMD

[3] = target: T1, Steroid hormone receptor ERR1; test: Binding affinity to wild type ERRalpha ligand binding domain by isothermal titration calorimetry

c1ccc(-n2cc(CNCC3CCCCC3)c3ccccc32)cc1
Kd [1]: 930 nM
IC50 [2]: 700 nM
Kd [3]: 770 nM
